Calls of active or inactive are those of the source.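 Rule for the calls: active = compounds giving half or more protection of infected cells from virus-caused growth loss, again on retest; inactive = the rest.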 Some results are limits rather than exact numbers.

The test system of this experiment is CEM cells HIV-1 protection, formazan growth assay. Nature of the experiment: NCI AIDS Antiviral Assay. The following applies: for IC50: measured here: growth of uninfected CEM cells. The essentials: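 Protection of CEM cells against HIV-1 measured as cell growth via soluble formazan read-out, with five concentrations tested on both infected and uninfected cells; failure to protect may reflect toxicity.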

The term EC50 denotes the concentration at which the effect is half-maximal. Broadly, the IC50 is the concentration that inhibits the measured activity by half. Consider `COc1cccc2c1C(CO)N1C(C#N)C3CC(C(=O)O)C(C1C2)N3C` (stereo unspecified), for which the EC50 was more than 0.355 µM and the IC50 is 0.0372 µM.

`COC(=O)CCCC=C(c1cc(Cl)c(OC)c(C(=O)OC)c1)c1cc(Cl)c(OC)c(C(=O)OC)c1`: the concentration for a half-maximal effect (EC50) is 1.62 µM and the IC50 was 21.4 µM. The like results for `COC1=NCN=C2SC=C(N)N=C12` were, in that order, more than 1070 µM and 562 µM.

`Nc1nc(Cl)cc(NCC2(O)CC(CO)C2)n1` (stereo unspecified): the EC50 was more than 200 µM and the IC50 is more than 200 µM. With `Cc1cn(CC2(CO)CCC2)c(=O)[nH]c1=O`, the EC50 is more than 200 µM and the half-inhibitory concentration (IC50) was more than 200 µM. On to `O=C(O)c1[nH]c(=O)[nH]c(=O)c1C(=O)O`, for which the EC50 is more than 200 µM and the IC50 was more than 200 µM. For the compound `O=C1NC(c2ccccc2)C1N(Cc1ccccc1)Cc1ccccc1` (stereo unspecified), the EC50 is more than 200 µM and the IC50 was more than 200 µM. Turning to `N#Cc1nc(C2CCC2)oc1N`, the EC50 is more than 200 µM and the IC50 was more than 200 µM. Consider `O=C(O/N=c1/ccc(=O)/c(=N\OC(=O)c2ccccc2)c1=O)c1ccccc1`, for which the EC50 was more than 200 µM and the IC50 was 47.9 µM. Take `Cn1c(=O)nc2n(-c3ccc(O)cc3)c3ccccc3nc-2c1=O`: the result was inactive. As to `O=[N+]([O-])c1cccc2nnccc12`, the EC50 was more than 200 µM and the IC50 is 22.9 µM. `O=C1CCC2=C1C[C@@H]1CCCO[C@@H]1O2`: the outcome was inactive.

On to `Nc1ccc2c(c1)C(=O)N(OS(=O)(=O)c1ccccc1)C2=O`, for which the outcome was inactive. The same measure, in the same setting: to `O=C1C2CCN(CC2)C1CNC1(c2ccccc2)CCCCC1` (stereo unspecified) belongs “inactive”. With `COc1cc(N=Nc2ccccc2C(=O)O)cc(/C=N/NC(=O)c2cccnc2)c1O`, the EC50 is more than 12.3 µM and the IC50 is more than 12.3 µM. Turning to `O=C(CC1(O)C(=O)Nc2c(Cl)ccc(Cl)c21)c1ccc2ccccc2c1` (stereo unspecified), the EC50 was more than 245 µM and the IC50 worked out at 14.5 µM. On the same counts, the results for `O=c1[nH]c2cc(Cl)ccc2nc1/C(=N\Nc1ccccc1)C(O)c1ccc2c(c1)OCO2` (stereo unspecified) are more than 209 µM and more than 209 µM. Consider `CC1=CC2CC(C)=C(CC[C@]3(C)CC[C@H]([C@@H](C)C(=O)O)OO3)C(C)(C)C2CC1` (stereo partly specified), for which the outcome was inactive.

Regarding `CCOc1ccc(N=Cc2cc(OC)c(OC)c(OC)c2)cc1`, the EC50 is more than 60.3 µM and the IC50 is more than 60.3 µM.

Take `CC1OC(Oc2c(-c3ccc(O)c(O)c3)oc3cc(O)cc(O)c3c2=O)C(O)C(O)C1O` (stereo unspecified): the outcome was inactive. As for `COc1cc(C2c3cc(O)c(OC)cc3C[C@@H]3C(=O)OCC23)ccc1O` (stereo partly specified), the EC50 was more than 263 µM and the IC50 was more than 263 µM.

Take `O=c1oc2ccccc2c(O)c1Cc1ccc(Cc2c(O)c3ccccc3oc2=O)cc1`: the EC50 is more than 200 µM and the IC50 came out at 182 µM. On the same counts, the results for `O=[N+]([O-])c1ccc(-n2nc3ccc4nonc4c3n2)cc1` are more than 200 µM and more than 200 µM. On the same counts, the results for `COc1cc2c(c(OC)c1OC)C(=O)[C@H](O)[C@H]2NC(N)=O` are more than 200 µM and 105 µM. On the same counts, the results for `Cc1c(O)c(OC2OC(CO)C(O)C(O)C2O)cc2c1C=C[C@@H]1[C@@]2(C)C(=O)C[C@]2(C)[C@@H]([C@@](C)(O)C(O)/C=C/C(C)(C)O)[C@H](O)C[C@@]12C` (stereo partly specified) are more than 200 µM and more than 200 µM. As for `Cc1cc(S(=O)(=O)NC2=NCc3nc4ccccc4n32)c(S)cc1Cl`, the EC50 was more than 200 µM and the IC50 was 35.5 µM. The like results for `CCOC(=O)c1cc2c([nH]1)c(O)cc1c2ccn1Cc1ccccc1` were, in that order, more than 200 µM and 29.5 µM. The like results for `CC(C)C[S+]1C2=C([O-])CC(C)(C)CC2=Nc2ccccc21` (stereo unspecified) were, in that order, more than 200 µM and more than 200 µM. The like results for `O=C(NNC(=O)/C(=C/c1cccc([N+](=O)[O-])c1)NC(=O)c1ccccc1)Nc1ccc(Cl)cc1` were, in that order, more than 38.9 µM and 24.5 µM. With `Cc1ccc(C2(C)CCC(C(C)(C)O)OO2)cc1` (stereo unspecified), the result was inactive. For the compound `COc1c(OC)c(C2(O)C(=O)N(C)c3ccccc32)c(OC)c(OC)c1C1(O)C(=O)N(C)c2ccccc21` (stereo unspecified), the EC50 was more than 200 µM and the IC50 was more than 200 µM. Regarding `Cc1ccc(S(=O)(=O)N2c3ccccc3[C@H]3CCc4c([nH]c5ccccc45)[C@H]32)cc1`, the EC50 is 35.5 µM and the IC50 is more than 100 µM.

With `COc1ccc(C(=O)Nc2sc(SC)nc2C(N)=O)cc1`, the EC50 was more than 200 µM and the IC50 was more than 200 µM. In the case of `CC1=CC(C)(C)N=C2SC(COc3ccccc3)=NN12`, the EC50 was more than 200 µM and the IC50 came to 34.7 µM.

For `COc1ccc([N+](=O)[O-])c2c(NCCCN(C)C)c(C)c(C)nc12`, the EC50 is more than 200 µM and the IC50 was 91.2 µM.

As to `O=c1cnn(C2OC(CO)C(O)C(F)C2O)c(=O)[nH]1` (stereo unspecified), the EC50 is more than 200 µM and the IC50 is more than 200 µM. With `COc1cc(-c2nc3sc(-c4ccc(O)c(OC)c4)nc3s2)ccc1O`, the EC50 is 83.2 µM and the IC50 was more than 200 µM. On the same counts, the results for `O=C(Nc1cc(C(F)(F)F)ccc1Cl)C(=O)C(C(=O)c1ccc2ccccc2c1)C1OC(=O)c2ccccc21` (stereo unspecified) are more than 33.9 µM and 18.6 µM. The like results for `O=C1c2ccccc2-c2nnc(-c3ccc(Cl)cc3)cc21` were, in that order, more than 100 µM and more than 100 µM. The like results for `C=C(C)C(=O)O[C@H]1[C@H]2[C@H](OC(=O)[C@H]2C)[C@H](O)[C@@H](C)[C@@H]2C=CC(=O)[C@]21C` were, in that order, more than 363 µM and 1.91 µM. Consider `COC(=O)c1oc(-c2ccccc2)c(-c2ccccc2)c1C(=O)OC`, for which the EC50 was more than 200 µM and the IC50 amounted to 74.1 µM. On the same counts, the results for `O=C(NC1=Nc2c(ncn2COCCO)S(=O)(=O)[N-]1)c1ccccc1.[Ag+]` are more than 200 µM and 3.55 µM. For the compound `COc1cc2oc(-c3ccc(O)cc3)cc(=O)c2c(OC)c1OC`, the EC50 was 97.7 µM and the IC50 was more than 200 µM.

In the case of `N#CCCN(CCC#N)c1ccc(/C=C2\N=C(c3ccccc3)N(NC(N)=S)C2=O)cc1`, the EC50 is more than 200 µM and the IC50 is more than 200 µM. Turning to `Cc1ccc(N2C(N)=C(C#N)C(C#N)(C#N)C2c2ccccc2)cc1` (stereo unspecified), the EC50 was more than 200 µM and the IC50 stood at 2.82 µM. The like results for `COc1ccc(N/C=C2\C(=O)CCc3c2oc2cc(Cl)c(O)c(Cl)c32)cc1` were, in that order, more than 200 µM and 28.8 µM. As to `COc1cc2nc(CCc3nc4cc(OC)c(OC)cc4[nH]3)[nH]c2cc1OC`, the EC50 was more than 17 µM and the IC50 was determined as 12.3 µM. On the same counts, the results for `NC(=O)C(=O)CC(=O)c1ccccc1NC1=CC(=O)C(=O)c2ccccc21` are more than 20 µM and more than 20 µM. On the same counts, the results for `CC1=C(C(=O)CC(=O)C(=O)Nc2ccccc2C)Sc2ccccc2N1` are more than 19.5 µM and more than 19.5 µM. The like results for `COC(=O)C(C(=O)C(=O)Nc1ccc([N+](=O)[O-])cc1[N+](=O)[O-])c1nc2ccc(Cl)cc2[nH]c1=O` (stereo unspecified) were, in that order, more than 74.1 µM and 66.1 µM. For `O=[N+]([O-])c1ccc(S(=O)(=O)n2c3ccc(Br)cc3c3nc4ccccc4nc32)cc1`, the EC50 is more than 100 µM and the IC50 is more than 100 µM. Consider `Nc1ccc2c(O)c(N=Nc3ccc(-c4ccc(N=Nc5c(S(=O)(=O)O)cc6cc(S(=O)(=O)O)c(N=Nc7cc(Cl)ccc7Cl)c(N)c6c5O)cc4)cc3)c(S(=O)(=O)O)cc2c1`, for which the outcome was inactive. For the compound `Cc1ccc(C(C)C)c(OP(=S)(S)Oc2cc(C)ccc2C(C)C)c1`, the EC50 is more than 200 µM and the IC50 turned out to be 4.17 µM. As to `CC(C)=CCC/C(C)=C/CCC(C(=O)COCc1ccccc1)P1(=O)OC(C)(C)CN1C(C)(C)C` (stereo unspecified), the EC50 is more than 200 µM and the IC50 was determined as 61.7 µM. In the case of `Cc1cc(C)n(-c2c(O)ccc(O)c2-n2nc(C)cc2C)n1`, the EC50 is more than 229 µM and the IC50 was 120 µM. Consider `CS(=O)(=O)OCC1OC2OC3(CCCCC3)OC2C1OCc1ccccc1` (stereo unspecified), for which the EC50 is more than 200 µM and the IC50 came out at 105 µM. On the same counts, the results for `CC(C)(C)C1CCC2c3c([nH]c4ccccc34)C3C(=O)N(c4cccc(Cl)c4)C(=O)C3C2C1` (stereo unspecified) are more than 200 µM and 11 µM. `CCn1cc(C(=O)O)c(=O)c2cc(F)c(-n3cccc3)cc21`: the result was inactive. As to `O=c1oc2ccccc2c(O)c1-c1cccc2ccccc12`, the outcome was inactive.

As for `COc1cc(NC=O)c2c(c1)SC(c1ccccc1)C(=O)N2` (stereo unspecified), the EC50 was more than 200 µM and the IC50 turned out to be 56.2 µM.

As to `O=[N+]([O-])c1ccccc1S(=O)(=O)N1CCCc2cc(Cl)ccc21`, the EC50 was more than 200 µM and the IC50 was 16.6 µM. On the same counts, the results for `Cc1c2ccccc2nc(CCl)[n+]1[O-]` are more than 200 µM and 3.24 µM.

On to `CC(O)c1nc2c3ccccc3ccc2n1C` (stereo unspecified), for which the EC50 is more than 776 µM and the IC50 is 389 µM. For the compound `O=C1C=C/C(=C/[C@H]2SSC=C[C@]23C=CC(=O)C3)C1`, the EC50 is more than 200 µM and the IC50 came out at 2.63 µM.

For the compound `Cc1cc[n+]2c(c1)-c1cc(C)cc[n+]1CC2`, the EC50 was more than 200 µM and the IC50 stood at 162 µM. Take `N#Cc1ccccc1C(Cl)(Cl)c1cnccn1`: the EC50 is more than 490 µM and the IC50 was found to be 64.6 µM. On the same counts, the results for `Oc1ccc(-c2csc(NNC3=NC/C(=C/c4ccc5c(c4)OCO5)S3)n2)cc1O` are more than 200 µM and 64.6 µM.

Consider `CCN(CC)CCCC(C)Nc1cc(-c2ccccc2)nc2ccccc12` (stereo unspecified), for which the EC50 is more than 17.8 µM and the IC50 is 7.76 µM. On to `N#Cc1nc(-c2cccc(-c3nc(C#N)c(N)o3)n2)oc1N`, for which the result was inactive. For the compound `COc1ccc(C2=C(N)c3ccccc3C2=O)cc1`, the EC50 was more than 200 µM and the IC50 is more than 200 µM. Consider `O=C1C(=O)c2ccccc2C(O)=C1C(C1=C(O)c2ccccc2C(=O)C1=O)c1ccccc1`, for which the EC50 was more than 200 µM and the IC50 worked out at 20.9 µM.

The values above are taken from PubChem BioAssay AID179 (DTP/NCI, 2004).
